Measured values published in PubChem BioAssay AID588846 (Broad Institute, 2011).
Calls of active or inactive are those of the source. No rule for the calls is given here.

Assays:
[1] = tested on: HMLE_shGFP viability, CellTiter-Glo luminescence, 72 h; experiment: cytotoxicity in control HMLE_shGFP mammary epithelial cells, dose response, counter-screen for breast cancer stem cell killers, cell-based, CellTiter-Glo luminescence, dry powder, set 2 (AID 588846)
[2] = as above; details: HMLE_shGFP viability, CellTiter-Glo luminescence, 72 h; at 32 µM (top of the series)

Compound	AC50 [1] [µM]	viability fraction [2]
Cc1csc(NC(=O)c2ccc(COc3ccccc3F)o2)n1	0.36	–
Cc1csc(NC(=O)c2ccc(CNc3ccccn3)o2)n1	–	80.2% (inactive)
O=C(NC1CCCC1)c1ccc(COc2ccccc2)o1	–	95.7% (inactive)
O=C(/C=C/c1ccc(-c2ccccc2)cc1)NC1=NCCS1	–	13.7% (inactive)
CCc1ccc(/C=C/C(=O)NC2=NCCS2)cc1	–	92.9% (inactive)
Cc1ccc(/C=C/C(=O)NC2=NCCS2)cc1	–	88.1% (inactive)
CC(C)c1ccc(/C=C/C(=O)NC2=NCCS2)cc1	–	14% (inactive)
COc1ccc(/C=C/C(=O)NC2=NCCS2)c(OC)c1	30	–
Cc1csc(NC(=O)c2ccc(COc3cccc(F)c3)o2)n1	4.4	–
O=C(/C=C/c1ccc(Cl)c(Cl)c1)NC1=NCCS1	–	22.2% (inactive)
